This note sets out measurements from patent publication US11648254B2 (Kumquat Biosciences Inc., priority 2021, dated 2023).

One data set concerns the target SOS1 (Homo sapiens (Human), UniProt Q07889). The data set can be described thus: Ras-SOS interaction assay (HTRF). Type of data set: biochemical.
Data set [1] is described as follows: In vitro plasma protein binding (PPB). As to conditions: percentage of free/unbound compound. Type of data set: in vitro ADME.
In data set [2] the test system is MIA PaCa-2 cells (K-Ras G12C). The data set can be described thus: Ras-SOS cellular growth inhibition assay (CellTiter-Glo, 3D). Type of data set: cell-based. As to conditions: Homo sapiens. In short, it runs like this:
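MIA PaCa-2 cells grown in ultra-low-attachment plates (3D) in DMEM/Ham's F12 with 10% FCS and 2.5% horse serum, treated the day after seeding with a 9-point 3-fold compound series for about 5 days. Viability by CellTiter-Glo luminescence; IC50 from four-parameter fit.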

For data set [3], the system named is NCI-H1975 cells (EGFR T790M L858R). The data set can be described thus: EGFR-SOS cellular inhibition assay (CellTiter-Glo, 3D). Type of data set: cell-based. As to conditions: Homo sapiens.
The mark [4] stands for this setting: K-RasG13D utilized, read-out: IC50 inhibition of SOS.
The mark [5] stands for this setting: K-RasG13D, read-out: IC50 value against SOS1.
Setting [6] is: MIA PaCa-2, 120 h, MIA PaCa-2, 3D proliferation, about 5 days, read-out: Bio-Cell-Prolif-3D (MiaPaca2 IC50).
Setting [7] is: MIA PaCa-2, MIA PaCa-2, read-out: IC50 in inhibiting MIA PaCa-2 cell growth.
Setting [8] is: 120 h, NCI-H1975, 3D proliferation, about 5 days, read-out: Bio-Cell-Prolif-3D (H1975 IC50).
Setting [9] is: NCI-H1975, EGFR T790M L858R, read-out: IC50 in inhibiting growth of NCI-H1975 cell line.

Where two headings read alike, the source gives them in different places.

Chain of SOS1 (Q07889 564-1049): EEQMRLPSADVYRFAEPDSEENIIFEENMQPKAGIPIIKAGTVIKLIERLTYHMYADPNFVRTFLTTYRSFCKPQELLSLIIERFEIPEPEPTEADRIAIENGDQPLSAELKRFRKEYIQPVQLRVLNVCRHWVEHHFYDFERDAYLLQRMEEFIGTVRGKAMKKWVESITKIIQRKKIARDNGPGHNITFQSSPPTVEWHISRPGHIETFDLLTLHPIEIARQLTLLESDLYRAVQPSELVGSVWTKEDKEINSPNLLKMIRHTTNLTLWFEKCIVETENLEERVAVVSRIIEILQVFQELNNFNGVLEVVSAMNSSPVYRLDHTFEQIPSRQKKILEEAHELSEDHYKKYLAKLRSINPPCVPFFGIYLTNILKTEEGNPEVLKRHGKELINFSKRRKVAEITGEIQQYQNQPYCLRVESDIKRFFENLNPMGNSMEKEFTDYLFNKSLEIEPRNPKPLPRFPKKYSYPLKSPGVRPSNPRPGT

Turning to `COc1nc2nc(C)nc(N[C@H](C)c3cccc(C(F)F)c3F)c2cc1N1CCS(=O)(=O)CC1` [Compound 131, (R)-4-(4-((1-(3-(difluoromethyl)-2-fluorophenyl)ethyl)amino)-7-methoxy-2-methylpyrido[2,3-d]pyrimidin-6-yl)thiomorpholine 1,1-dioxide], the IC50 is less than 0.1 µM at SOS1 (setting [4]); less than 0.05 µM at SOS1 (setting [5]); not above 1 µM in data set [2] (setting [6]); less than 0.5 µM in data set [2] (setting [7]); not above 1 µM in data set [3] (setting [8]); less than 0.5 µM in data set [3] (setting [9]). Further, the “DMPK-invitro-PPB (Mouse Unbound) [%]” value in data set [1] is listed as 4.01%.
Consider `COc1nc2nc(C)nc(N[C@H](C)c3cccc(C(F)(F)F)c3C)c2cc1C1CCS(=O)(=O)CC1` [Compound 118, (R)-4-(7-methoxy-2-methyl-4-((1-(2-methyl-3-(trifluoromethyl)phenyl)ethyl)amino)pyrido[2,3-d]pyrimidin-6-yl)tetrahydro-2H-thiopyran 1,1-dioxide], for which the 50% inhibitory concentration (IC50) at SOS1 (setting [5]) is less than 0.05 µM; in data set [2] (setting [6]), not above 1 µM; in data set [2] (setting [7]) it was less than 0.5 µM; in data set [3] (setting [8]) it was not above 1 µM; in data set [3] (setting [9]), less than 0.5 µM. Further, in data set [1], the “DMPK-invitro-PPB (Mouse Unbound) [%]” value is 0.31%.
Consider `COc1nc2ncnc(N[C@H](C)c3cccc(C(F)(F)F)c3C)c2cc1N1CCN(C2CCOCC2)CC1` [Compound 160, (R)-7-methoxy-N-(1-(2-methyl-3-(trifluoromethyl)phenyl)ethyl)-6-(4-(tetrahydro-2H-pyran-4-yl)piperazin-1-yl)pyrido[2,3-d]pyrimidin-4-amine], for which the IC50 on SOS1 (setting [4]) was less than 0.1 µM; on SOS1 (setting [5]), less than 0.05 µM; in data set [2] (setting [6]), not above 1 µM; in data set [3] (setting [8]), not above 1 µM; in data set [3] (setting [9]), less than 0.5 µM. The “DMPK-invitro-PPB (Mouse Unbound) [%]” value in data set [1] worked out at 1.05%.
With `COc1nc2nc(C)nc(N[C@H](C)c3cccc(C(F)(F)F)c3F)c2cc1N1CCS(=O)(=O)CC1` [Compound 305, (R)-4-(4-((1-(2-fluoro-3-(trifluoromethyl)phenyl)ethyl)amino)-7-methoxy-2-methylpyrido[2,3-d]pyrimidin-6-yl)thiomorpholine 1,1-dioxide], the IC50 was less than 0.1 µM on SOS1 (setting [4]); less than 0.05 µM at SOS1 (setting [5]); not above 1 µM in data set [2] (setting [6]); less than 0.5 µM in data set [2] (setting [7]); not above 1 µM in data set [3] (setting [8]); less than 0.5 µM in data set [3] (setting [9]). Besides, in data set [1], the “DMPK-invitro-PPB (Mouse Unbound) [%]” value is 1.24%.
On to `COc1nc2ncnc(N[C@H](C)c3cccc(C(F)(F)C(C)(C)O)c3F)c2cc1N1CCN(C(C)C)CC1` [Compound 273, (R)-1,1-difluoro-1-(2-fluoro-3-(1-((6-(4-isopropylpiperazin-1-yl)-7-methoxypyrido[2,3-d]pyrimidin-4-yl)amino)ethyl)phenyl)-2-methylpropan-2-ol], for which the IC50 is less than 0.1 µM on SOS1 (setting [4]); less than 0.05 µM on SOS1 (setting [5]); not above 1 µM in data set [2] (setting [6]); less than 0.5 µM in data set [2] (setting [7]); not above 1 µM in data set [3] (setting [8]); less than 0.5 µM in data set [3] (setting [9]). Also, in data set [1], the “DMPK-invitro-PPB (Mouse Unbound) [%]” value was 12.22%.
As to `COc1nc2nc(C)nc(N[C@H](C)c3cccc(C(F)F)c3F)c2cc1N1CCN(C(C)C)CC1` [Compound 109, (R)-N-(1-(3-(difluoromethyl)-2-fluorophenyl)ethyl)-6-(4-isopropylpiperazin-1-yl)-7-methoxy-2-methylpyrido[2,3-d] pyrimidin-4-amine], the IC50 on SOS1 (setting [4]) was less than 0.1 µM; on SOS1 (setting [5]) it was less than 0.05 µM; in data set [2] (setting [6]), not above 1 µM; in data set [2] (setting [7]) it was less than 0.5 µM; in data set [3] (setting [8]) it was not above 1 µM; in data set [3] (setting [9]) it was less than 0.5 µM. Also, the “DMPK-invitro-PPB (Mouse Unbound) [%]” value in data set [1] turned out to be 3.51%.
Consider `COc1nc2ncnc(N[C@H](C)c3cccc(C(F)(F)F)c3F)c2cc1C1CCN(C2CCOCC2)CC1` [Compound 164, (R)-N-(1-(2-fluoro-3-(trifluoromethyl)phenyl)ethyl)-7-methoxy-6-(1-(tetrahydro-2H-pyran-4-yl)piperidin-4-yl)pyrido[2,3-d]pyrimidin-4-amine], for which the half-maximal inhibitory concentration (IC50) is less than 0.1 µM at SOS1 (setting [4]); less than 0.05 µM at SOS1 (setting [5]); not above 1 µM in data set [2] (setting [6]); less than 0.5 µM in data set [2] (setting [7]); not above 1 µM in data set [3] (setting [8]); less than 0.5 µM in data set [3] (setting [9]). The “DMPK-invitro-PPB (Mouse Unbound) [%]” value in data set [1] is 1.6%.
For the molecule `COc1nc2nc(C)nc(N[C@H](C)c3cccc(C(F)(F)F)c3F)c2cc1C1CCN(C(C)C)CC1` [Compound 287, (R)-N-(1-(2-fluoro-3-(trifluoromethyl)phenyl)ethyl)-6-(1-isopropylpiperidin-4-yl)-7-methoxy-2-methylpyrido[2,3-d]pyrimidin-4-amine], the half-maximal inhibitory concentration (IC50) on SOS1 (setting [4]) was less than 0.1 µM; at SOS1 (setting [5]), less than 0.05 µM; in data set [2] (setting [6]), not above 1 µM; in data set [2] (setting [7]) it was less than 0.5 µM; in data set [3] (setting [8]), not above 1 µM; in data set [3] (setting [9]), less than 0.5 µM. In data set [1], the “DMPK-invitro-PPB (Mouse Unbound) [%]” value was determined as 0.39%.
`CCN1CCC(c2cc3c(N[C@H](C)c4cccc(C(F)(F)F)c4C)nc(C)nc3nc2OC)CC1` [Compound 351, (R)-6-(1-ethylpiperidin-4-yl)-7-methoxy-2-methyl-N-(1-(2-methyl-3-(trifluoromethyl)phenyl)ethyl)pyrido [2,3-d]pyrimidin-4-amine]: the IC50 on SOS1 (setting [4]) was less than 0.1 µM; on SOS1 (setting [5]), less than 0.05 µM; in data set [2] (setting [6]) it was not above 1 µM; in data set [2] (setting [7]) it was less than 0.5 µM; in data set [3] (setting [8]) it was not above 1 µM; in data set [3] (setting [9]) it was less than 0.5 µM. Further, the “DMPK-invitro-PPB (Mouse Unbound) [%]” value in data set [1] came out at 0.22%.
For the molecule `COc1nc2nc(C)nc(N[C@H](C)c3cccc(C(F)(F)F)c3C)c2cc1N1CCN(C(C)C)CC1` [Compound 171, (R)-6-(4-isopropylpiperazin-1-yl)-7-methoxy-2-methyl-N-(1-(2-methyl-3-(trifluoromethyl)phenyl)ethyl)pyrido[2,3-d]pyrimidin-4-amine], the concentration for half-maximal inhibition (IC50) at SOS1 (setting [4]) is less than 0.1 µM; at SOS1 (setting [5]), less than 0.05 µM; in data set [2] (setting [6]), not above 1 µM; in data set [3] (setting [8]) it was not above 1 µM; in data set [3] (setting [9]), less than 0.5 µM. Moreover, the “DMPK-invitro-PPB (Mouse Unbound) [%]” value in data set [1] worked out at 0.12%.
For `COc1nc2ncnc(N[C@H](C)c3cccc(C(F)(F)F)c3C)c2cc1C1CCS(=O)(=O)CC1` [Compound 373, (R)-4-(7-methoxy-4-((1-(2-methyl-3-(trifluoromethyl)phenyl)ethyl)amino)pyrido[2,3-d]pyrimidin-6-yl)tetrahydro-2H-thiopyran 1,1-dioxide], the IC50 at SOS1 (setting [5]) was less than 0.05 µM; in data set [2] (setting [6]), not above 1 µM; in data set [2] (setting [7]), less than 0.5 µM; in data set [3] (setting [8]), not above 1 µM. Besides, the “DMPK-invitro-PPB (Mouse Unbound) [%]” value in data set [1] stood at 2.93%.
`COc1nc2ncnc(N[C@H](C)c3cccc(C(F)(F)F)c3C)c2cc1N1CCN(C(C)C)CC1` [Compound 376, (R)-6-(4-isopropylpiperazin-1-yl)-7-methoxy-N-(1-(2-methyl-3-(trifluoromethyl)phenyl)ethyl)pyrido [2,3-d]pyrimidin-4-anune]: the 50% inhibitory concentration (IC50) is less than 0.1 µM at SOS1 (setting [4]); less than 0.05 µM on SOS1 (setting [5]); not above 1 µM in data set [2] (setting [6]); less than 0.5 µM in data set [2] (setting [7]); not above 1 µM in data set [3] (setting [8]); less than 0.5 µM in data set [3] (setting [9]). The “DMPK-invitro-PPB (Mouse Unbound) [%]” value in data set [1] came to 0.91%.
As for `COc1nc2nc(C)nc(N[C@H](C)c3cccc(C(F)(F)F)c3F)c2cc1C1CCS(=O)(=O)CC1` [Compound 120, (R)-4-(4-((1-(2-fluoro-3-(trifluoromethyl)phenyl)ethyl)amino)-7-methoxy-2-methylpyrido[2,3-d]pyrimidin-6-yl)tetrahydro-2H-thiopyran 1,1-dioxide], the IC50 at SOS1 (setting [4]) is less than 0.1 µM; on SOS1 (setting [5]) it was less than 0.05 µM; in data set [2] (setting [6]), not above 1 µM; in data set [2] (setting [7]), less than 0.5 µM; in data set [3] (setting [8]), not above 1 µM; in data set [3] (setting [9]) it was less than 0.5 µM. In data set [1], the “DMPK-invitro-PPB (Mouse Unbound) [%]” value is 0.73%.
As for `COc1nc2ncnc(N[C@H](C)c3cccc(C(F)F)c3F)c2cc1N1CCN(C(C)C)CC1` [Compound 316, (R)-N-(1-(3-(difluoromethyl)-2-fluorophenyl)ethyl)-6-(4-isopropylpiperazin-1-yl)-7-methoxypyrido[2,3-d]pyrimidin-4-amine], the concentration for half-maximal inhibition (IC50) is less than 0.1 µM at SOS1 (setting [4]); less than 0.05 µM on SOS1 (setting [5]); 1 to 10 µM in data set [2] (setting [6]); not above 1 µM in data set [3] (setting [8]); less than 0.5 µM in data set [3] (setting [9]). The “DMPK-invitro-PPB (Mouse Unbound) [%]” value in data set [1] turned out to be 9.83%.
Consider `COc1nc2nc(C)nc(N[C@H](C)c3cccc(C(F)F)c3F)c2cc1C1CCS(=O)(=O)CC1` [Compound 102, (R)-4-(4-((1-(3-(difluoromethyl)-2-fluorophenyl)ethyl)amino)-7-methoxy-2-methylpyrido[2,3-d]pyrimidin-6-yl)tetrahydro-2H-thiopyran 1,1-dioxide], for which the IC50 is less than 0.1 µM at SOS1 (setting [4]); less than 0.05 µM at SOS1 (setting [5]); not above 1 µM in data set [2] (setting [6]); less than 0.5 µM in data set [2] (setting [7]); not above 1 µM in data set [3] (setting [8]); less than 0.5 µM in data set [3] (setting [9]). In addition, the “DMPK-invitro-PPB (Mouse Unbound) [%]” value in data set [1] was determined as 2.56%.
